Laboratory results from patent publication US7435872B2, “Role of p62 in aging-related disease” (Samsung Electronics, Co., Ltd., priority 2002, dated 2008).
Square brackets hold non-standard residues; d marks the D form. Peptide text beside a SMILES is read from it. * marks the point of attachment. Nle = CCCC[C@H](N)C(=O)O; Cbz = O=C(OCc1ccccc1)*

What was measured:
[1] = test system: p62+/+ and p62-/- mouse embryo fibroblast (MEF); assay: Cell viability by MTT assay after glutathione depletion; format: cell-based; details: different concentrations of DEM or BSO; p62-null versus wild type MEFs
Method: (§1) FIGS. 44A-44B show effects of glutathione depletion on cell viability in p62+/+ and p62−/− mouse embryo fibroblast (MEF). Cell viability was assessed with a methylthiazolium (MTT) assay, which measures mitochondrial dehydrogenase activity of viable cells spectrophotometrically. MEF (3×10^3 cells/well) in 96-well plates were treated with different concentrations of DEM (A) or BSO (B) washed with PBS and then incubated with 0.5 mg/ml MTT in PBS for 4 h. To solubilize the formazan products, […] DMSO was added. The absorption values at 570 nm were determined.
as §1, with “In addition to the above, FIGS.” for “FIGS.”, “determined. […] This death of p62-null MEFs is an apoptotic process (FIG. 48). Thus, p62 appears to have the function of regulating cellular redox status and/or cellular reactive oxygen species (ROS) generation and scavenging systems.” for “determined.”

COS7 cells [2] = assay: Sequestosome (p62 inclusion) formation, anti-p62 immunostaining; design: p62 accumulation in sequestosome / cellular inclusion formation in the presence of translational inhibitor: dose or concentration left out as unconfirmed; details: 12 hours; for formation of sequestosome: 20 mM ALLN, 5 mM lactacystin, 10 mM MG 132, 50 nM epoxomicin
p62 gene = assay: Activation of the p62 gene, immunoblot and RNA analysis; format: cell-based; details: COS7 cells, 20 mM LLnL, with or without actinomycin D
Excerpt: Equivalent loading was confirmed by anti-beta-actin immunoblotting. […] Equivalent loading of RNA was confirmed by staining 28S and 18S ribosomal RNA with ethidium bromide (lower panel).

HEK 293 cells = assay: Colocalization of p62 with multi-ubiquitin chain; format: cell-based; details: increasing concentrations of LLnL, 16 hours
[3] = test system: mouse embryonic fibroblasts (MEFs); assay: Ubiquitin-positive inclusion formation in MEFs; format: cell-based; design: dose or concentration left out as unconfirmed; details: 12 hours
Excerpt: FIGS. 37A-37B show p62 aggregates formed in MEF in the presence of GSH-depletor. […] Bar=10 μm.
Ubiquitin-p62 inclusion is formed in mouse embryonic fibroblasts. […] MEFs from p62 null embryos were transfected with a p62 expression vector.
Further, p62-positive intracellular inclusion are also formed by oxidative stress. For instance, FIGS. 37A-37B show the formation of p62- or ubiquitin-positive aggregates in MEF in the presence of glutathione (GSH) depletory, diethylmaleate (DEM). […] Thus, p62 has a function to collect misfolded and/or ubiquitinated intracellular proteins and make intracellular inclusions.

COS7 cells [4] = assay: p62 level in triton X-100 soluble and insoluble fractions, immunoblot; format: cell-based; design: dose or concentration left out as unconfirmed; details: plus cycloheximide

## CCCCS(=N)(=O)CCC(N)C(=O)O (stereo not shown) [BSO, buthioninesulfoximine]
[1]
  cell viability (MTT) on glutathione depletion: p62-null MEFs die more readily compared with wild type MEFs

## CCCC[C@@H](C=O)NC(=O)[C@H](CC(C)C)NC(=O)[C@H](CC(C)C)NC(C)=O [LLnL] (Ac-Leu-Leu-[Nle]-aldehyde)
COS7 cells [2]
  p62 accumulation in sequestosome: p62 accumulates in sequestosome
  formation of sequestosome: can induce formation of sequestosome
p62 gene
  p62 gene activation / p62 level: activation of the p62 gene
HEK 293 cells
  colocalization of p62 with multi-ubiquitin chain: colocalization of p62 with multi-ubiquitin chain
[3]
  ubiquitin-positive inclusion formation, p62-heterozygote MEF: can form the inclusion but less efficiently
  ubiquitin-positive inclusion formation, p62-null MEF: cannot form the inclusion at all
  ubiquitin-positive inclusion formation, p62 wild type MEF: formed ubiquitin-positive inclusions well

## CC(C)C[C@@H](C=O)NC(=O)[C@H](CC(C)C)NC(=O)[C@H](CC(C)C)NC(=O)OCc1ccccc1 [MG 132] (Cbz-Leu-Leu-Leu-aldehyde)
COS7 cells [2]
  formation of sequestosome: can induce formation of sequestosome

## C[C@@H]1C[C@@H]([C@H](O)CC2CC(=O)NC(=O)C2)C(=O)[C@@H](C)C1 [cycloheximide]
COS7 cells [2]; plus cycloheximide
  cellular inclusion formation in the presence of translational inhibitor: not formed
COS7 cells [4]
  p62 cellular level: not increased

## CC[C@H](C)[C@H](NC(=O)[C@H]([C@@H](C)CC)N(C)C(C)=O)C(=O)N[C@H](C(=O)N[C@@H](CC(C)C)C(=O)[C@@]1(C)CO1)[C@@H](C)O [epoxomicin]
COS7 cells [2]
  formation of sequestosome: can induce formation of sequestosome

## CC(=O)N[C@@H](CSC(=O)[C@]1([C@@H](O)C(C)C)NC(=O)[C@H](C)[C@@H]1O)C(=O)O [lactacystin]
COS7 cells [2]
  formation of sequestosome: can induce formation of sequestosome
